Laboratory results: ChEMBL document CHEMBL1157335, “Aromatic constituents of Uvaria grandiflora” (J Nat Prod, 2006)
In brackets after ≈: the same amount, converted by molar mass.

Test system: Leishmania donovani
Assay: Antileishmanial activity against Leishmania donovani promastigotes after 48 hrs by alamar blue assay
Format: functional, organism-based

## C[C@@H]1[C@H](O)[C@@H](C)/C=C/C=C/C=C/C=C/C=C/C=C/C=C/[C@H](O[C@@H]2O[C@H](C)[C@@H](O)[C@H](N)[C@@H]2O)C[C@@H]2O[C@](O)(C[C@@H](O)C[C@@H](O)[C@H](O)CC[C@@H](O)C[C@@H](O)CC(=O)O[C@H]1C)C[C@H](O)[C@H]2C(=O)O [AMPHOTERICIN B]
  IC90: 0.34 mg/L (≈ 0.368 µM)

## CC(=O)O[C@H]1C(=O)C=COC=C1COC(=O)c1ccccc1 [GRANDIUVARONE A]
  IC50: 0.7 mg/L (≈ 2.32 µM)
  IC90: 1.5 mg/L (≈ 4.96 µM)

## N=C(N)c1ccc(OCCCCCOc2ccc(C(=N)N)cc2)cc1 [PENTAMIDINE]
  IC90: 6.6 mg/L (≈ 19.4 µM)
